Data taken from the NIST ThermoML archive (doi:10.1016/j.jct.2018.12.021).

Experiment: mn = molality of the nth substance listed, in mol/kg
Settings: for electrical conductivity / mass density: 100 kPa, Liquid; for electrical conductivity: Direct current cell with electrodes; for mass density: Vibrating tube method; for surface tension liquid-gas: Ring tensiometer

CCCCCCCCCCCC[n+]1ccsc1.[Br-] [N-dodecylthiazolium bromide] + O
Settings	electrical conductivity [S/m]	mass density [kg/m3]	surface tension liquid-gas [mN/m]
293.15 K, m1 = 0.00122	–	998.24	–
293.15 K, m1 = 0.00157	0.0131	998.27	–
293.15 K, m1 = 0.00191	–	998.29	–
293.15 K, m1 = 0.00201	0.017	998.3	–
293.15 K, m1 = 0.00258	–	998.33	–
293.15 K, m1 = 0.00299	0.0246	998.36	–
293.15 K, m1 = 0.00326	–	998.38	–
293.15 K, m1 = 0.00407	0.033	998.43	–
293.15 K, m1 = 0.00429	–	998.45	–
293.15 K, m1 = 0.00507	0.0421	998.5	–
293.15 K, m1 = 0.00548	–	998.53	–
293.15 K, m1 = 0.00602	0.0483	998.57	–
293.15 K, m1 = 0.00698	0.0568	998.64	–
293.15 K, m1 = 0.00753	0.0603	998.68	–
293.15 K, m1 = 0.00905	0.0699	998.78	–
293.15 K, m1 = 0.01006	0.0754	998.85	–
293.15 K, m1 = 0.01266	0.0892	999.01	–
293.15 K, m1 = 0.01513	0.0958	999.17	–
293.15 K, m1 = 0.01771	0.103	999.33	–
293.15 K, m1 = 0.01974	0.107	999.46	–
293.15 K, m1 = 0.02301	0.116	999.66	–
293.15 K, m1 = 0.02601	0.123	999.84	–
298.15 K, m1 = 0.00122	–	997.08	–
298.15 K, m1 = 0.00157	0.0147	997.1	–
298.15 K, m1 = 0.00191	–	997.12	–
298.15 K, m1 = 0.00201	0.0189	997.13	–
298.15 K, m1 = 0.00258	–	997.16	–
298.15 K, m1 = 0.00299	0.0276	997.19	–
298.15 K, m1 = 0.00326	–	997.21	–
298.15 K, m1 = 0.00407	0.0365	997.26	–
298.15 K, m1 = 0.00429	–	997.28	–
298.15 K, m1 = 0.00507	0.0469	997.33	–
298.15 K, m1 = 0.00548	–	997.36	–
298.15 K, m1 = 0.00602	0.0535	997.39	–
298.15 K, m1 = 0.00698	0.0632	997.46	–
298.15 K, m1 = 0.00753	0.0671	997.5	–
298.15 K, m1 = 0.00905	0.0779	997.61	–
298.15 K, m1 = 0.01006	0.0845	997.68	–
298.15 K, m1 = 0.01266	0.1	997.84	–
298.15 K, m1 = 0.01513	0.11	998	–
298.15 K, m1 = 0.01771	0.117	998.16	–
298.15 K, m1 = 0.01974	0.123	998.29	–
298.15 K, m1 = 0.02301	0.132	998.49	–
298.15 K, m1 = 0.02601	0.14	998.67	–
303.15 K, m1 = 0.00122	–	995.67	–
303.15 K, m1 = 0.00157	0.0164	995.69	60.2
303.15 K, m1 = 0.00191	–	995.71	–
303.15 K, m1 = 0.00201	0.0209	995.72	57.03
303.15 K, m1 = 0.00258	–	995.75	–
303.15 K, m1 = 0.00299	0.0305	995.78	53.96
303.15 K, m1 = 0.00326	–	995.8	–
303.15 K, m1 = 0.00407	0.0402	995.85	49.57
303.15 K, m1 = 0.00429	–	995.87	–
303.15 K, m1 = 0.00507	0.0517	995.92	43.38
303.15 K, m1 = 0.00548	–	995.95	–
303.15 K, m1 = 0.00602	0.0589	995.98	41.31
303.15 K, m1 = 0.00698	0.0694	996.04	38.15
303.15 K, m1 = 0.00753	0.0734	996.08	37.87
303.15 K, m1 = 0.00905	0.0859	996.18	32.2
303.15 K, m1 = 0.01006	0.093	996.25	32.54
303.15 K, m1 = 0.01266	0.117	996.42	32.07
303.15 K, m1 = 0.01513	0.125	996.57	32.43
303.15 K, m1 = 0.01771	0.132	996.72	31.44
303.15 K, m1 = 0.01974	0.138	996.84	31.87
303.15 K, m1 = 0.02301	0.148	997.04	–
303.15 K, m1 = 0.02601	0.156	997.2	32.42
308.15 K, m1 = 0.00122	–	994.05	–
308.15 K, m1 = 0.00157	0.018	994.07	–
308.15 K, m1 = 0.00191	–	994.09	–
308.15 K, m1 = 0.00201	0.0229	994.1	–
308.15 K, m1 = 0.00258	–	994.14	–
308.15 K, m1 = 0.00299	0.0334	994.17	–
308.15 K, m1 = 0.00326	–	994.18	–
308.15 K, m1 = 0.00407	0.0443	994.24	–
308.15 K, m1 = 0.00429	–	994.25	–
308.15 K, m1 = 0.00507	0.0563	994.3	–
308.15 K, m1 = 0.00548	–	994.33	–
308.15 K, m1 = 0.00602	0.0646	994.36	–
308.15 K, m1 = 0.00698	0.0757	994.42	–
308.15 K, m1 = 0.00753	0.0803	994.46	–
308.15 K, m1 = 0.00905	0.0978	994.55	–
308.15 K, m1 = 0.01006	0.107	994.63	–
308.15 K, m1 = 0.01266	0.131	994.78	–
308.15 K, m1 = 0.01513	0.141	994.93	–
308.15 K, m1 = 0.01771	0.148	995.08	–
308.15 K, m1 = 0.01974	0.156	995.2	–
308.15 K, m1 = 0.02301	0.165	995.4	–
308.15 K, m1 = 0.02601	0.174	995.56	–
313.15 K, m1 = 0.00122	–	992.22	–
313.15 K, m1 = 0.00157	0.0197	992.24	–
313.15 K, m1 = 0.00191	–	992.26	–
313.15 K, m1 = 0.00201	0.025	992.27	–
313.15 K, m1 = 0.00258	–	992.3	–
313.15 K, m1 = 0.00299	0.0366	992.33	–
313.15 K, m1 = 0.00326	–	992.35	–
313.15 K, m1 = 0.00407	0.0485	992.4	–
313.15 K, m1 = 0.00429	–	992.42	–
313.15 K, m1 = 0.00507	0.0614	992.46	–
313.15 K, m1 = 0.00548	–	992.49	–
313.15 K, m1 = 0.00602	0.0703	992.52	–
313.15 K, m1 = 0.00698	0.0838	992.58	–
313.15 K, m1 = 0.00753	0.0904	992.62	–
313.15 K, m1 = 0.00905	0.11	992.72	–
313.15 K, m1 = 0.01006	0.122	992.79	–
313.15 K, m1 = 0.01266	0.146	992.94	–
313.15 K, m1 = 0.01513	0.159	993.07	–
313.15 K, m1 = 0.01771	0.171	993.22	–
313.15 K, m1 = 0.01974	0.177	993.33	–
313.15 K, m1 = 0.02301	0.187	993.52	–
313.15 K, m1 = 0.02601	0.196	993.68	–
